Data: US20240335401A1, “SUBSTITUTED PHENETHYLAMINE FOR TREATING INFLAMMATION AND PSYCHOLOGICAL DISORDERS” (SYNAPTIVE THERAPEUTICS LLC, priority 2022, published 2024)

Legend:
TNFa in circulation = assay: LPS-induced inflammatory response in mice, TNFa in circulation; format: in vivo; details: mice injected with LPS; subcutaneous administration; FIG. 1
Procedure: FIG. 1 is a graph showing the level of TNF-α in serum of mice injected with LPS to induce inflammation and administered 2C-H or control vehicle.
(§1) In another experiment, mice were also injected with a toxic level of LPS to initiate a lethal septic event, which was attenuated by administration of 2C-H (FIG. 2).

[1] = system: mice injected with a toxic level of LPS; assay: Lethal septic event after a toxic level of LPS in mice; format: in vivo; details: FIG. 2
Procedure: FIG. 2 is a plot showing % mice that died after injection of a toxic level of LPS when administered 2C-H or vehicle control.
as §1

[2] = taken recreationally; cited from earlier work
mice [3] = assay: Signs of hallucination in mice at increasing doses; format: in vivo; details: oral, FIG. 3
Procedure: FIG. 3 is a plot of % mice showing sign of hallucination at increasing doses of 2C-B.
(§2) Mice were administered increasing amounts of 2C-B to identify sub-hallucinogenic doses (FIG. 3). It was determined that a dose of 0.025 mg/kg can be orally administered to mice without showing any signs of hallucination. Mice were then administered 2C-B for increasing amounts of time, then placed on the EPM apparatus for 5 minutes and time spent on the open arms obtained. As it can be seen in FIG. 4, the sub-hallucinogenic dose of 2C-B was capable of reducing anxiety in mice.

mice [4] = assay: EPM apparatus, time spent on the open arms (anxiety); format: in vivo; details: sub-hallucinogenic dose, EPM for 5 minutes, compared to saline, FIG. 4
Procedure: FIG. 4 is a graph showing the time spent on the open arm by mice treated with 2C-B for increasing amounts of time.
as §2

Row | Structure (SMILES) | inflammatory response (measured by TNFa in circulation) (TNFa in circulation) | lethal septic event (% mice that died) [1] | threshold unit dose that can cause psychedelic activity [2] | dose that can be orally administered without showing any signs of hallucination (mice [3]) [mg/kg] | time spent on the open arm (mice [4])
1 | COc1ccc(OC)c(CCN)c1 [2C-H] | quickly quelled | attenuated |  |  | 
2 | CCc1cc(OC)c(CCN)cc1OC [2C-E, 4-Ethyl-2,5-dimethoxyphenethylamine] |  |  | about 2 mg |  | 
3 | COc1cc(CCN)c(OC)cc1I [2C-I, 2-(4-lodo-2,5-dimethoxyphenyl)ethan-1-amine] |  |  | about 2 mg |  | 
4 | COc1cc(CCN)c(OC)cc1Br [2C-B, 4-Bromo-2,5-dimethoxyphenethylamine] |  |  | about 5 mg | 0.025 | increased time spent on the open arm compared to saline
